From paper PMC11004395 (Saudi Pharmaceutical Journal : SPJ, 2024)

Molecular target: bovine xanthine oxidase (BXO) (Bos taurus, UniProt P80457)
Experiment: XO inhibitory assay, double enzyme detection
Format: biochemical
Conditions: read-out: IC50 of moderately active compounds, moderate activities (Fig. 6)

Chain of bovine xanthine oxidase (BXO) (P80457 whole entry): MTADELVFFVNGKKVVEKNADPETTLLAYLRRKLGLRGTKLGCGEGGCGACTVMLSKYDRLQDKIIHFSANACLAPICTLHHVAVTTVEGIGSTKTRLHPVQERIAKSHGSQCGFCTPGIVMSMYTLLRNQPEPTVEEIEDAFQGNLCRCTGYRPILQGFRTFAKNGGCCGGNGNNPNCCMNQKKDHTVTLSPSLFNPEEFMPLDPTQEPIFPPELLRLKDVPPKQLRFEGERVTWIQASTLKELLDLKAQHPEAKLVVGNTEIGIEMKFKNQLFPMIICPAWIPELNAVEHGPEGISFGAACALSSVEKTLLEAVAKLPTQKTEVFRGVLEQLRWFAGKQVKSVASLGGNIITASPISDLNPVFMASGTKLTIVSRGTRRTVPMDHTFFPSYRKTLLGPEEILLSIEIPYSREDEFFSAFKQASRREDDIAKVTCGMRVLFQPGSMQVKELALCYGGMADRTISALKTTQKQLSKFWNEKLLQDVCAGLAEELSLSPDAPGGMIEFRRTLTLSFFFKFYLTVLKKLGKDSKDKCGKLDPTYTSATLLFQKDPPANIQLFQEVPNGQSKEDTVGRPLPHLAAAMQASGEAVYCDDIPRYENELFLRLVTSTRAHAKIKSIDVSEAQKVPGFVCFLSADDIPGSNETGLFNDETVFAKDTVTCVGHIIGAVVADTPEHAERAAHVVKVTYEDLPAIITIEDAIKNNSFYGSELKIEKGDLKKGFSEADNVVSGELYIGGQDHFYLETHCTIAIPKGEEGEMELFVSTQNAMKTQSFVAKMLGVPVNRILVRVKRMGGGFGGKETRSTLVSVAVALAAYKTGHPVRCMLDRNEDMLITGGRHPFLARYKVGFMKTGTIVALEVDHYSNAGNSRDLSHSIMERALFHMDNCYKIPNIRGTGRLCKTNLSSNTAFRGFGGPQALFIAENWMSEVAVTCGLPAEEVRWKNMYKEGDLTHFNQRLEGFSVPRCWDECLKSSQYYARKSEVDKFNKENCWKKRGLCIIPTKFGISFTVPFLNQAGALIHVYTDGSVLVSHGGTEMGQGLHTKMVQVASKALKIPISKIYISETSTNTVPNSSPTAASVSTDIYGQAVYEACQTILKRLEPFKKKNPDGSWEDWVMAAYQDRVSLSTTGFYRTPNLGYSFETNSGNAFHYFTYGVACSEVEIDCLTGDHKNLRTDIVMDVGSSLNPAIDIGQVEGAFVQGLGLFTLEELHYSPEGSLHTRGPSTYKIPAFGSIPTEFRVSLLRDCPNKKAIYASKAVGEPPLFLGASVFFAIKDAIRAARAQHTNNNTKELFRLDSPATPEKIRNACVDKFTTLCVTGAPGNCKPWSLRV

O=[N+]([O-])c1ccc(C=Nn2c(Cn3nnc4ccccc43)n[nH]c2=S)cc1 [Compound 8, 3-((1H-Benzo[d][1,2,3]triazol-1-yl)methyl)-4-((4-nitrobenzylidene)amino)-1H-1,2,4-triazole-5(4H)-thione]
IC50: ≤ 263 µM
